Among the data in patent US10711004B2 (Genentech, Inc., priority 2018, dated 2020) are IC50 values, retold here.

Like-named read-outs stand apart in the source and are kept apart here.

The experiment addresses human TRPA1 channel (Homo sapiens (Human), UniProt O75762). Description: hTRPA1 CHO Ca2+ FLIPR Tetra assay, block of cinnamaldehyde induced calcium influx. Format: cell-based. The following applies: CHO cells expressing TRPA1, Hill coefficient fixed to 1.5. How it is done:
CHO cells expressing TRPA1 were plated into 384-well plates, incubated overnight at 37° C., and loaded with BD calcium indicator dye for 1 hr at 37° C. followed by 15 minutes at room temperature. The assay buffer was Hank's Balanced Salt Solution (HBSS) containing 20 mM HEPES (pH readjusted to 7.4) along with 0.02% BSA.
Following dye load and plate cool down, compounds were added to the cells using FLIPR Tetra. Plates were then incubated with compounds for 10 minutes or 90 minutes at room temperature prior to adding agonist. Following this incubation, about an EC50 concentration of cinnamaldehyde (75) was added to active the channels and block of cinnamaldehyde induced calcium influx was measured.
Fixing the Hill coefficient will generally reduce variability of the IC50 determination. The IC50 results were individually examined to make sure the MIN and MAX points were set correctly prior to validation of the results.

The mark [1] stands for this setting: read-out: hTRPA1 IC50 (10 min), compounds incubated 10 minutes at room temperature before cinnamaldehyde agonist.
[2] abbreviates: read-out: hTRPA1 IC50 (90 min), compounds incubated 90 minutes at room temperature before cinnamaldehyde agonist.

Chain of human TRPA1 channel (O75762 whole entry): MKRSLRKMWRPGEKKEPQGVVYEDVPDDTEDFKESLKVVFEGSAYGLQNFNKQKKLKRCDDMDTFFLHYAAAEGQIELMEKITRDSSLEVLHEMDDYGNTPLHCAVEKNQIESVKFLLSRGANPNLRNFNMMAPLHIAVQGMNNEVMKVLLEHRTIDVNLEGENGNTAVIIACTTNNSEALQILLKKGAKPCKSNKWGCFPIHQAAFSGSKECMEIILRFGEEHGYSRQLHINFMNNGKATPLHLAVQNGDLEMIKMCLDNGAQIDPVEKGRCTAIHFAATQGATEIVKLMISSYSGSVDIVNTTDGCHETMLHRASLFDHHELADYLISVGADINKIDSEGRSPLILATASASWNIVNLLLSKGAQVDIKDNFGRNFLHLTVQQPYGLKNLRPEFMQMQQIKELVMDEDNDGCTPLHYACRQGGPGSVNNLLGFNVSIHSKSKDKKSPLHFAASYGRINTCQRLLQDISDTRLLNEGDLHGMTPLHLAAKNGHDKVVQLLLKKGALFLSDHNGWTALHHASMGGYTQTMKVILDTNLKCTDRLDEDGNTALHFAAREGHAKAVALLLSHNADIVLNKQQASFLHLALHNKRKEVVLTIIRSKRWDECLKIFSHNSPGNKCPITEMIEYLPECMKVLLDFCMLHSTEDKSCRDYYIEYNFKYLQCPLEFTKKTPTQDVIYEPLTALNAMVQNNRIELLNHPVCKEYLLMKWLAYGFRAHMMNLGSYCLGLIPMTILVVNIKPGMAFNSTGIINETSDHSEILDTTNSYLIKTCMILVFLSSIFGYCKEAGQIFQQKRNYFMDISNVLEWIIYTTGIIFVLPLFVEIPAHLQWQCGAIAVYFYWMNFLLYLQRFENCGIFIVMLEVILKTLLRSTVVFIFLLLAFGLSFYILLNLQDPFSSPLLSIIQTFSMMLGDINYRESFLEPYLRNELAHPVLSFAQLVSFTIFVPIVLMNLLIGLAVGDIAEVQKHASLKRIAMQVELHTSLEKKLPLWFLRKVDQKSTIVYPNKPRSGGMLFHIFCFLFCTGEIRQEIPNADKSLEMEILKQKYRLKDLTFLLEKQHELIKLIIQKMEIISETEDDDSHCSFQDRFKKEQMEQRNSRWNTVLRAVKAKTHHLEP

Take `Cn1cnc2ncn(Cc3nc([C@H]4[C@@H]5CN(c6cc(F)cc(F)c6)C[C@@H]54)no3)c(=O)c21` [Example Compound 92, 1-((3-((1R,5S,6r)-3-(3,5-difluorophenyl)-3-azabicyclo[3.1.0]hexan-6-yl)-1,2,4-oxadiazol-5-yl)methyl)-7-methyl-1,7-dihydro-6H-purin-6-one]: the IC50 under setting [1] was determined as 20.6 nM and the IC50 under setting [2] came out at 3.1 nM.

Take `Cn1cnc2ncn(Cc3nc([C@H]4[C@@H]5C=C(c6ccc(F)c(F)c6)C[C@@H]54)no3)c(=O)c21` [Example Compound 93, 1-((3-((1S,5S,6R)-3-(3,4-difluorophenyl)bicyclo[3.1.0]hex-2-en-6-yl)-1,2,4-oxadiazol-5-yl)methyl)-7-methyl-1,7-dihydro-6H-purin-6-one]: the IC50 under setting [1] was 12.7 nM and the IC50 under setting [2] came to 3.9 nM.

For the molecule `Cn1cnc2ncn(Cc3nc([C@@H]4[C@H]5C=C(c6ccc(F)c(F)c6)C[C@H]54)no3)c(=O)c21` [Example Compound 94, 1-((3-((1R,5R,6S)-3-(3,4-difluorophenyl)bicyclo[3.1.0]hex-2-en-6-yl)-1,2,4-oxadiazol-5-yl)methyl)-7-methyl-1,7-dihydro-6H-purin-6-one], the IC50 reads like this: under setting [1], 9.35 nM; under setting [2], 4.9 nM.

In the case of `Cc1cnn2ncn(Cc3nc([C@H]4[C@@H]5CN(c6ccccc6)C[C@@H]54)no3)c(=O)c12` [Example Compound 95, 5-methyl-3-((3-((1R,5S,6r)-3-phenyl-3-azabicyclo[3.1.0]hexan-6-yl)-1,2,4-oxadiazol-5-yl)methyl)pyrazolo[5,1f][1,2,4]triazin-4(3H)-one], the IC50 under setting [1] came out at 8.11 nM and the IC50 under setting [2] was determined as 3.5 nM.

Regarding `O=c1c2cccnc2cnn1Cc1nc([C@H]2[C@@H]3CN(c4cccc(F)c4)C[C@@H]32)no1` [Example Compound 96, 6-((3-((1R,5S,6r)-3-(3-fluorophenyl)-3-azabicyclo[3.1.0]hexan-6-yl)-1,2,4-oxadiazol-5-yl)methyl)pyrido[2,3-d]pyridazin-5(6H)-one], the IC50 turned out to be 8.39 nM under setting [1] and 5.1 nM under setting [2].

Turning to `Cn1cnc2ncn(Cc3nc([C@H]4[C@@H]5CN(c6ccccc6F)C[C@@H]54)no3)c(=O)c21` [Example Compound 97, 1-((3-((1R,5S,6r)-3-(2-fluorophenyl)-3-azabicyclo[3.1.0]hexan-6-yl)-1,2,4-oxadiazol-5-yl)methyl)-7-methyl-1,7-dihydro-6H-purin-6-one], the IC50 by setting is: under setting [1], 48.1 nM; under setting [2], 19 nM.

Consider `Cn1cnc2ncn(Cc3nc([C@H]4[C@@H]5CN(c6ccccc6C#N)C[C@@H]54)no3)c(=O)c21` [Example Compound 98, 2-((1R,5S,6r)-6-(5-((7-methyl-6-oxo-6,7-dihydro-1H-purin-1-yl)methyl)-1,2,4-oxadiazol-3-yl)-3-azabicyclo[3.1.0]hexan-3-yl)benzonitrile], for which the IC50 runs as follows: under setting [1], 157 nM; under setting [2], 100 nM.

Regarding `Cn1cnc2ncn(Cc3nc([C@H]4[C@@H]5CN(c6cc(F)ccc6F)C[C@@H]54)no3)c(=O)c21` [Example Compound 99, 1-((3-((1R,5S,6r)-3-(2,5-difluorophenyl)-3-azabicyclo[3.1.0]hexan-6-yl)-1,2,4-oxadiazol-5-yl)methyl)-7-methyl-1,7-dihydro-6H-purin-6-one], the IC50 amounted to 15.1 nM under setting [1] and 6.3 nM under setting [2].

`Cn1cnc2ncn(Cc3nc([C@H]4[C@@H]5CN(c6cccc(F)c6F)C[C@@H]54)no3)c(=O)c21` [Example Compound 100, 1-((3-((1R,5S,6r)-3-(2,3-difluorophenyl)-3-azabicyclo[3.1.0]hexan-6-yl)-1,2,4-oxadiazol-5-yl)methyl)-7-methyl-1,7-dihydro-6H-purin-6-one]: the IC50 was determined as 12.8 nM under setting [1] and 2.5 nM under setting [2].

Turning to `Cn1cnc2ncn(Cc3nc([C@H]4C[C@H](C(=O)c5cccc(Cl)c5)C4)no3)c(=O)c21` [Example Compound 101, 1-((3-((1r,3r)-3-(3-chlorobenzoyl)cyclobutyl)-1,2,4-oxadiazol-5-yl)methyl)-7-methyl-1,7-dihydro-6H-purin-6-one], the IC50 by setting is: under setting [1], 117 nM; under setting [2], 64 nM.

For `Cn1cnc2ncn(Cc3nc([C@@H]4[C@H]5C=C(c6cccc(C(F)F)c6)C[C@H]54)no3)c(=O)c21` [Example Compound 102, 1-((3-((1R,5R,6S)-3-(3-(difluoromethyl)phenyl)bicyclo[3.1.0]hex-2-en-6-yl)-1,2,4-oxadiazol-5-yl)methyl)-7-methyl-1,7-dihydro-6H-purin-6-one], the IC50 by setting is: under setting [1], 49.5 nM; under setting [2], 37 nM.

Consider `Cn1cnc2ncn(Cc3nc([C@H]4[C@@H]5C=C(c6cccc(C(F)F)c6)C[C@@H]54)no3)c(=O)c21` [Example Compound 103, 1-((3-((1S,5S,6R)-3-(3-(difluoromethyl)phenyl)bicyclo[3.1.0]hex-2-en-6-yl)-1,2,4-oxadiazol-5-yl)methyl)-7-methyl-1,7-dihydro-6H-purin-6-one], for which the IC50 came out at 31.9 nM under setting [1] and 26 nM under setting [2].

`Cc1noc2ncn(Cc3nc([C@H]4[C@@H]5CN(c6cc(Cl)ccn6)C[C@@H]54)no3)c(=O)c12` [Example Compound 104, 5-((3-((1R,5S,6r)-3-(4-chloropyridin-2-yl)-3-azabicyclo[3.1.0]hexan-6-yl)-1,2,4-oxadiazol-5-yl)methyl)-3-methylisoxazolo[5,4-d]pyrimidin-4(5H)-one]: the concentration for half-maximal inhibition (IC50) is, setting by setting: under setting [1], 43 nM; under setting [2], 30 nM.

On to `Cn1cnc2ncn(Cc3nc([C@H]4[C@@H]5CN(c6ccc(F)c(F)c6)C[C@@H]54)no3)c(=O)c21` [Example Compound 105, 1-((3-((1R,5S,6r)-3-(3,4-difluorophenyl)-3-azabicyclo[3.1.0]hexan-6-yl)-1,2,4-oxadiazol-5-yl)methyl)-7-methyl-1,7-dihydro-6H-purin-6-one], for which the IC50 under setting [1] came to 21.5 nM and the IC50 under setting [2] came to 3.9 nM.

As to `Cn1nnc2ncn(Cc3nc([C@@H]4CC[C@@H](c5ccc(F)cc5)C4)no3)c(=O)c21` [Example Compound 106, 6-((3-((1R,3R)-3-(4-fluorophenyl)cyclopentyl)-1,2,4-oxadiazol-5-yl)methyl)-1-methyl-1,6-dihydro-7H-[1,2,3]triazolo[4,5-d]pyrimidin-7-one], the IC50 turned out to be 40.3 nM under setting [1] and 44 nM under setting [2].

Turning to `Cc1cc(C#N)nc2ncn(Cc3nc([C@H]4[C@@H]5CN(c6cc(Cl)ccn6)C[C@@H]54)no3)c(=O)c12` [Example Compound 107, 3-((3-((1R,5S,6r)-3-(4-chloropyridin-2-yl)-3-azabicyclo[3.1.0]hexan-6-yl)-1,2,4-oxadiazol-5-yl)methyl)-5-methyl-4-oxo-3,4-dihydropyrido[2,3-d]pyrimidine-7-carbonitrile], the IC50 under setting [1] was determined as 49 nM and the IC50 under setting [2] came out at 9.1 nM.

Consider `Cn1nnc2ncn(Cc3nc([C@H]4[C@@H]5C=C(c6ccccc6)C[C@@H]54)no3)c(=O)c21` [Example Compound 108, 1-methyl-6-((3-((1 S,5 S,6R)-3-phenylbicyclo[3.1.0]hex-2-en-6-yl)-1,2,4-oxadiazol-5-yl)methyl)-1,6-dihydro-7H-[1,2,3]triazolo[4,5-d]pyrimidin-7-one], for which the IC50 by setting is: under setting [1], 6.12 nM; under setting [2], 3.1 nM.

Take `Cn1nnc2ncn(Cc3nc([C@@H]4[C@H]5C=C(c6ccccc6)C[C@H]54)no3)c(=O)c21` [Example Compound 109, 1-methyl-6-((3-((1R,5R,6S)-3-phenylbicyclo[3.1.0]hex-2-en-6-yl)-1,2,4-oxadiazol-5-yl)methyl)-1,6-dihydro-7H-[1,2,3]triazolo[4,5-d]pyrimidin-7-one]: the IC50 by setting is: under setting [1], 10.4 nM; under setting [2], 4.1 nM.

Regarding `Cn1cnc2ncn(Cc3nc([C@@H]4[C@H]5C=C(c6ccc(F)cn6)C[C@H]54)no3)c(=O)c21` [Example Compound 110, 1-((3-((1R,5R,6S)-3-(5-fluoropyridin-2-yl)bicyclo[3.1.0]hex-2-en-6-yl)-1,2,4-oxadiazol-5-yl)methyl)-7-methyl-1,7-dihydro-6H-purin-6-one], the IC50 was 64 nM under setting [1] and 27 nM under setting [2].

In the case of `Cn1cnc2ncn(Cc3nc([C@H]4[C@@H]5C=C(c6ccc(F)cn6)C[C@@H]54)no3)c(=O)c21` [Example Compound 111, 1-((3-((1S,5S,6R)-3-(5-fluoropyridin-2-yl)bicyclo[3.1.0]hex-2-en-6-yl)-1,2,4-oxadiazol-5-yl)methyl)-7-methyl-1,7-dihydro-6H-purin-6-one], the IC50 was determined as 116 nM under setting [1] and 78 nM under setting [2].

As to `Cn1cnc2ncn(Cc3nc([C@H]4[C@@H]5C=C(c6ccc7scnc7c6)C[C@@H]54)no3)c(=O)c21` [Example Compound 112, 1-((3-((1S,5S,6R)-3-(benzo[d]thiazol-5-yl)bicyclo[3.1.0]hex-2-en-6-yl)-1,2,4-oxadiazol-5-yl)methyl)-7-methyl-1,7-dihydro-6H-purin-6-one], the IC50 came out at 36 nM under setting [1] and 24 nM under setting [2].

With `Cn1cnc2ncn(Cc3nc([C@@H]4[C@H]5C=C(c6ccc7scnc7c6)C[C@H]54)no3)c(=O)c21` [Example Compound 113, 1-((3-((1R,5R,6S)-3-(benzo[d]thiazol-5-yl)bicyclo[3.1.0]hex-2-en-6-yl)-1,2,4-oxadiazol-5-yl)methyl)-7-methyl-1,7-dihydro-6H-purin-6-one], the IC50 reads like this: under setting [1], 36.2 nM; under setting [2], 34 nM.
